Experimental data reported in patent US20230286970A1, “NOVEL OXADIAZOLE-BASED SELECTIVE HDAC6 INHIBITORS” (ITALFARMACO S.P.A., priority 2020, published 2023).
Blank lines part the entries; values can stand above or below the compound they belong to.

Columns and labels:
[1] = Stability to Phase I metabolism in human S9 liver fraction; conditions: after 90 minutes, 37° C.
Experimental: Test compounds were incubated in rat and human liver S9 fraction at 37° C. up to 90 minutes in order to evaluate their stability to Phase I metabolism by hepatic enzymes. Each test compound was incubated at μM concentration (50 μM when the samples were analysed by UV/HPLC, 1 or 2 μM when the samples were analysed by LC-MS/MS) with S9 fraction (protein content 2 mg/m L) in 100 mM phosphate buffer (pH 7.4), 3.3 mM MgCl2 and 1.3 mM NADPH for 0, 10, 30, 60 and 90 minutes at 37° C. in a thermostated oscillating bath. The reaction was stopped placing samples on ice bath and adding acidified acetonitrile. After centrifugation (10 minutes at 14000 rpm) an aliquot of the supernatant was diluted with water, filtered with 0.45 μm regenerated cellulose syringe filters and injected in HPLC-UV or in LC-MS/MS. The percentage of the remaining amount at the various incubation times with respect to the initial amount were calculated.

HDAC2 = HDAC2 (Homo sapiens (Human), UniProt Q92769); assay: Enzymatic screening, HDAC2 inhibition; assay type: biochemical
Experimental: (§1) For each test compound, 100× concentrated DMSO solutions at 8 doses were prepared and then diluted in assay buffer (25 mM Tris-HCl, pH 8, 130 mM NaCl, 0.05% Tween-20, 10% Glycerol) to obtain 5× concentrated solutions in relation to the final concentrations (typical final concentration range—6.4-200000 nM or 0.18-50000 nM, final DMSO content—1%). Then 10 μL solution of each test compound concentration were placed on a 96-well plate in triplicate and 15 μL of 3.33× concentrated enzyme solution in the assay buffer containing 3.33× concentrated BSA (final BSA concentration—2 mg/mL for HDAC4, HDAC5 and HDAC9 or 1 mg/mL for other isoforms) and in the case of HDAC6-3.33× concentrated TCEP (final TCEP concentration—200 μM) were added to each well. After a period of preincubation (incubation times and temperatures vary for different isoforms and are shown in table 1) 25 μL of solution containing the substrate were added. As substrate, FLUOR DE LYS® deacetylase substrate (Enzo Life Sciences, cat: BML-KI104, FdL), FLUOR DE LYS®-Green substrate (Enzo Life Sciences, cat: BML-KI572, FdL_G) or Boc-Lys(Tfa)-AMC (Bachem, cat: 4060676.005, Tfal)—2× concentrated solution in assay buffer were used. Following a reaction period (reaction times and temperatures vary for different isoforms and are reported in Table 1), 50 μL of the development solution consisting of concentrate FLUOR DE LYS® developer I (Enzo Life Sciences, ca: BML-KI105), diluted 200 times in buffer (50 mM Tris-HCl, pH 8, 137 mM NaCl, 2.7 mM KCl, 1 mM MgCl2) plus 2 μM TSA was added and, after 25 minutes at room temperature in the dark, using the Victor 1420 Multilabel Counter Perkin Elmer Wallac instrument, the fluorescence reading was carried out.

HDAC8 = HDAC8 (Homo sapiens (Human), UniProt Q9BY41); assay: Enzymatic screening, HDAC8 inhibition; assay type: biochemical
Experimental: as §1

HDAC3 = HDAC3 (Homo sapiens (Human), UniProt O15379); assay: Enzymatic screening, HDAC3 inhibition; assay type: biochemical
Experimental: as §1

Stability in rat plasma = conditions: after 4 hours, 37° C.
Experimental: In order to evaluate the stability to circulating enzymes, test compounds were incubated in human and rat plasma at 37° C. in a thermostated oscillating bath. Each test compound was incubated at μM concentration (50 μM when the samples were analysed by UV/HPLC, 1 or 2 μM when the samples were analysed by LC-MS/MS) for 0, 15, 30 minutes and 1, 2 and 4 hours. The reaction was stopped placing samples on ice bath and adding acidified acetonitrile. After centrifugation (10 minutes at 14000 rpm) an aliquot of the supernatant was diluted with water, filtered with 0.45 μm regenerated cellulose syringe filters and injected in HPLC-UV or in LC-MS/MS. The percentage of the remaining amount at the various incubation times with respect to the initial amount were calculated. The half-life in plasma was also calculated.

[2] = Stability in human plasma; conditions: after 4 hours, 37° C.
recombinant human HDAC1 = recombinant human HDAC1 (Homo sapiens (Human), UniProt Q13547); assay: Enzymatic screening, HDAC1 inhibition (fluorogenic FdL_G substrate); assay type: biochemical
In short: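 Recombinant human HDAC1 inhibition was measured fluorometrically using the FLUOR DE LYS-Green (FdL_G) substrate. Compounds at 8 doses (1% DMSO final) in Tris-HCl pH 8 buffer with NaCl, Tween-20 and glycerol were preincubated in triplicate with enzyme and 1 mg/mL BSA, then given substrate. Developer I plus 2 μM TSA was added, and fluorescence read after 25 minutes in the dark.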

HDAC7 = HDAC7 (Homo sapiens (Human), UniProt Q8WUI4); assay: Enzymatic screening, HDAC7 inhibition; assay type: biochemical
Experimental: as §1

[3] = Stability to Phase I metabolism in rat S9 liver fraction; conditions: after 90 minutes, 37° C.
recombinant human HDAC6 = recombinant human HDAC6 (Homo sapiens (Human), UniProt Q9UBN7); assay: Enzymatic screening, HDAC6 inhibition (fluorogenic FdL_G substrate); assay type: biochemical
In short: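 Enzyme was preincubated with compound (8 doses, triplicate, 1% DMSO) in 25 mM Tris-HCl pH 8, 130 mM NaCl, 0.05% Tween-20, 10% glycerol, with BSA. A FLUOR DE LYS-Green substrate was then added, and fluorescence was read after developer plus 2 μM TSA.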

HDAC9 = HDAC9 (Homo sapiens (Human), UniProt Q9UKV0); assay: Enzymatic screening, HDAC9 inhibition; assay type: biochemical
Experimental: as §1

HDAC5 = HDAC5 (Homo sapiens (Human), UniProt Q9UQL6); assay: Enzymatic screening, HDAC5 inhibition; assay type: biochemical
Experimental: as §1

[4] = test system: α-tubulin acetylation in 697 cell line; assay: In vitro α-tubulin acetylation in 697 cell line (ELISA); assay type: cell-based; conditions: 16 hours, read-out: fold increase @ 1 uM TubAc (ratio of acetylated tubulin and total tubulin towards control)
Experimental: The in vitro α-tubulin acetylation determination was evaluated on B 697 promyelocytic cell line.
The test molecules were diluted from 20 mM stock solution in DMSO with RPMI 10% FCS+0.01% DMSO medium at 20× concentration compared to the final concentration, added to the cells (15×10^6 cells in a total volume of 30 mL in RPMI medium 10% FCS+0.01% DMSO) to obtain the final concentrations of 1000, 333, 111, 37 nM and incubated at 37° C., 5% CO2 for 16 hours.
At the end of the incubation period, 5×10^6 cells were taken from each sample, centrifuged for 5 minutes at 1100 rpm and washed in 0.9% NaCl at 4° C. The resulting pellet was lysed by treating at 4° C. for 30 minutes with 150 μl of Complete Lysis-M buffer containing protease inhibitors (Complete Lysis-M Roche+Complete Tablets, Mini Easypack, cat: 4719956001) and phosphatase inhibitor cocktails (PhosStop Easypack, Roche, cat: 4906837001), then centrifuged 10 minutes at 14,000 rpm (20817×g). 0.3 μg of supernatant (total protein extract) were diluted in 100 μl of 1×PBS and immobilized in Maxisorp F96 NUN-IMMUNO Plate (Nunc MaxiSorp flat-bottom, Nunc, cat: 442404) at room temperature overnight. Plates were washed twice with Wash Buffer (PBS1×+0.005% tween 20) and saturated for 1 hour at room temperature with 300 μL of 1×PBS containing 10% FCS. After washing twice with Wash Buffer, the plates were incubated for two hours at room temperature in the presence of anti-acetylated-α-tubulin antibody (Monoclonal Anti-acetylated-tubulin clone 6-11B-1, mouse ascites fluid, Sigma, cat: T6793), 100 μl/well diluted 1:1000 in 1×PBS containing 10% FCS) or with total anti-α-tubulin antibody (Monoclonal Anti-alpha-tubulin produced in mouse, Sigma, cat: T6074). Following washing of the pates 5 times with Wash Buffer the secondary antibody conjugated with the enzyme HRP (Goat anti-Mouse IgG, IgM, IgA (H+L), Thermo Fisher Scientific, cat: A10668), diluted 1:1000 in 1×PBS+10% FBS was added at the volume of 100 μl/well.
After washing 4 times, 100 μl/well of TMB substrate kit was added for 10 minutes at room temperature in the dark. The reaction was stopped by adding 50 μl of 2N H2SO4. The plates were read at Multiskan Spectrum spectrophotometer at a wavelength of 450 nm.
The degree of acetylation was calculated by dividing the absorbance obtained for acetylated α-tubulin by the absorbance of total tubulin.
The results of tubulin acetylation, expressed as fold increase of ratio of acetylated α-tubulin/total α-tubulin, of each sample relative to the control sample (untreated) are summarized in table 6.

HDAC11 = HDAC11 (Homo sapiens (Human), UniProt Q96DB2); assay: Enzymatic screening, HDAC11 inhibition; assay type: biochemical
Experimental: as §1

HDAC4 = HDAC4 (Homo sapiens (Human), UniProt P56524); assay: Enzymatic screening, HDAC4 inhibition; assay type: biochemical
Experimental: as §1

HDAC10 = HDAC10 (Homo sapiens (Human), UniProt Q969S8); assay: Enzymatic screening, HDAC10 inhibition; assay type: biochemical
Experimental: as §1

Sequence of recombinant human HDAC6 (Q9UBN7 whole entry): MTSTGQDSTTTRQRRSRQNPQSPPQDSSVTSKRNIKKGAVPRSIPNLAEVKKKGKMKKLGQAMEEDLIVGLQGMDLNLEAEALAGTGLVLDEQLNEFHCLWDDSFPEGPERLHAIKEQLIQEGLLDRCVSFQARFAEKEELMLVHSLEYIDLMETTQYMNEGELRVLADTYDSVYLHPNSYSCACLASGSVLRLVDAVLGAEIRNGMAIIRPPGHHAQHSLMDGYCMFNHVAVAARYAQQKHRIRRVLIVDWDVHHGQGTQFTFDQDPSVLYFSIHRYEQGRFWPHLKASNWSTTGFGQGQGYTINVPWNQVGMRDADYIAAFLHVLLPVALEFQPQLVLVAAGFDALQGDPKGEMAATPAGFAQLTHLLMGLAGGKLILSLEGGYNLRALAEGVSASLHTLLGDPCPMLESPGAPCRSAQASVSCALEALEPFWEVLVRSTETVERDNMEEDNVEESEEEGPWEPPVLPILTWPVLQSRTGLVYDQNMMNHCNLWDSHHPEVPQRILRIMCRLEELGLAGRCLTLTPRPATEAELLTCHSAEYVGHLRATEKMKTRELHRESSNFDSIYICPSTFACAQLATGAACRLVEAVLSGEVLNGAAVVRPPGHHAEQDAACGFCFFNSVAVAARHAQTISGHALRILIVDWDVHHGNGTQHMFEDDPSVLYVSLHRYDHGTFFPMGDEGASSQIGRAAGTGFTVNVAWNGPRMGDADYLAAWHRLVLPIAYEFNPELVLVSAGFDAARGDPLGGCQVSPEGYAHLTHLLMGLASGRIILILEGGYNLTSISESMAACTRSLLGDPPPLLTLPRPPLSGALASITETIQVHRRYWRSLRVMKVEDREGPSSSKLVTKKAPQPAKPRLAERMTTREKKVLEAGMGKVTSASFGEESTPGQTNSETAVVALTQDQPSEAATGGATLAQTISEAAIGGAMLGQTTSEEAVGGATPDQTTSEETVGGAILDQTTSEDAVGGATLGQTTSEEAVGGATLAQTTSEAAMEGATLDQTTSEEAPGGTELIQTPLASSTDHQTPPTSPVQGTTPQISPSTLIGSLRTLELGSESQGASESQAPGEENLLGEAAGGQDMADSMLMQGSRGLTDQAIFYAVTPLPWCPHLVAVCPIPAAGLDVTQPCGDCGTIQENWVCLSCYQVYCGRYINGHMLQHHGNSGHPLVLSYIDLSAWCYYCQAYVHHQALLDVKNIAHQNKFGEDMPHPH
Sequence of recombinant human HDAC1 (Q13547 whole entry): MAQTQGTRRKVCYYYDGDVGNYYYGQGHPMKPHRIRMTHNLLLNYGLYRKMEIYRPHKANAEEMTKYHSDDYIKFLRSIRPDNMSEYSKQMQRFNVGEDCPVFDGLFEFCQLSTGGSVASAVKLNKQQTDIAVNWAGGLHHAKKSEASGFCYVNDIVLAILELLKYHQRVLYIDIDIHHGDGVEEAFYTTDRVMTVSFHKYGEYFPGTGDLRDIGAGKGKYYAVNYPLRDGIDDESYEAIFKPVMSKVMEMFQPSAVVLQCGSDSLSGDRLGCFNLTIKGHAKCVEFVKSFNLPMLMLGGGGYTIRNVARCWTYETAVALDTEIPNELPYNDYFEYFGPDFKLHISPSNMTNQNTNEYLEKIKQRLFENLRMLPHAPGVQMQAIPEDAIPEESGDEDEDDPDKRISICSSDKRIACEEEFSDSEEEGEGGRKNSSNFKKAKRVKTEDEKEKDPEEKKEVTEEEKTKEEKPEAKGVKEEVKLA
Sequence of HDAC9 (Q9UKV0 whole entry): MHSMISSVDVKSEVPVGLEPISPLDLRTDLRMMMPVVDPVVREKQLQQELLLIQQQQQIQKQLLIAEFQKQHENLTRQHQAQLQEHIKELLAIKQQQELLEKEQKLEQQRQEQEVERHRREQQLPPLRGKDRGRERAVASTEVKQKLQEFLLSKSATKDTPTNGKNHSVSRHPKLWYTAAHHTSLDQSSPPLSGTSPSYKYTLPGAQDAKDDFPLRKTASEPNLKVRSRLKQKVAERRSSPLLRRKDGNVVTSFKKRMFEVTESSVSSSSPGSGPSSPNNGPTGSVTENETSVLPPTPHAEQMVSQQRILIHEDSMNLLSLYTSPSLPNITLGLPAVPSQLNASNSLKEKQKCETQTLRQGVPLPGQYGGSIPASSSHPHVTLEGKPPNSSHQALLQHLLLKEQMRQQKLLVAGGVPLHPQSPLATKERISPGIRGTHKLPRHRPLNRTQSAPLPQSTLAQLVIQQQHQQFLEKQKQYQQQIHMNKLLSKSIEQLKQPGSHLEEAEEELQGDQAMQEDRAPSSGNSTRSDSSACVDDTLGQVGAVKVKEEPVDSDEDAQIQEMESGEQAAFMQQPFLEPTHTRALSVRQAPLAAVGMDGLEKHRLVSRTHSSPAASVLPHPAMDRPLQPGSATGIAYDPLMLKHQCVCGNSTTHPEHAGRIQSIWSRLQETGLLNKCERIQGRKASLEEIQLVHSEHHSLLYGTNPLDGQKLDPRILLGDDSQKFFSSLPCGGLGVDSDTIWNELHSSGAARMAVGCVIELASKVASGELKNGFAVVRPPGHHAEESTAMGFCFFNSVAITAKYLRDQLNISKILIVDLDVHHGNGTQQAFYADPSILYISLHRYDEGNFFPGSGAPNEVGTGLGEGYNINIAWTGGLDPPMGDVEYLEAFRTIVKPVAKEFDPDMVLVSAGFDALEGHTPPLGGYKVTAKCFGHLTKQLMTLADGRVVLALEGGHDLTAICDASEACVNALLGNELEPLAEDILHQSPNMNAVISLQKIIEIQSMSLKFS
Sequence of HDAC8 (Q9BY41 whole entry): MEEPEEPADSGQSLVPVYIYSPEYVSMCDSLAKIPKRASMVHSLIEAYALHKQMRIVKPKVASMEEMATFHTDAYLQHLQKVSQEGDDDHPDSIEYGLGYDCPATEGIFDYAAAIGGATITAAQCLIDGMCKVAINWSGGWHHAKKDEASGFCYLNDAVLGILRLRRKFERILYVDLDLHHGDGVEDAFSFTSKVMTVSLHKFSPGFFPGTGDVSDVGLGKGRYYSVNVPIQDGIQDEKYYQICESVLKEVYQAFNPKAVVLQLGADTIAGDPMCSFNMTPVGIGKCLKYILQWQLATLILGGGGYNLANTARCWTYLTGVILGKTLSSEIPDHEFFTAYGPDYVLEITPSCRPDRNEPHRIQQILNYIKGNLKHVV
Sequence of HDAC4 (P56524 whole entry): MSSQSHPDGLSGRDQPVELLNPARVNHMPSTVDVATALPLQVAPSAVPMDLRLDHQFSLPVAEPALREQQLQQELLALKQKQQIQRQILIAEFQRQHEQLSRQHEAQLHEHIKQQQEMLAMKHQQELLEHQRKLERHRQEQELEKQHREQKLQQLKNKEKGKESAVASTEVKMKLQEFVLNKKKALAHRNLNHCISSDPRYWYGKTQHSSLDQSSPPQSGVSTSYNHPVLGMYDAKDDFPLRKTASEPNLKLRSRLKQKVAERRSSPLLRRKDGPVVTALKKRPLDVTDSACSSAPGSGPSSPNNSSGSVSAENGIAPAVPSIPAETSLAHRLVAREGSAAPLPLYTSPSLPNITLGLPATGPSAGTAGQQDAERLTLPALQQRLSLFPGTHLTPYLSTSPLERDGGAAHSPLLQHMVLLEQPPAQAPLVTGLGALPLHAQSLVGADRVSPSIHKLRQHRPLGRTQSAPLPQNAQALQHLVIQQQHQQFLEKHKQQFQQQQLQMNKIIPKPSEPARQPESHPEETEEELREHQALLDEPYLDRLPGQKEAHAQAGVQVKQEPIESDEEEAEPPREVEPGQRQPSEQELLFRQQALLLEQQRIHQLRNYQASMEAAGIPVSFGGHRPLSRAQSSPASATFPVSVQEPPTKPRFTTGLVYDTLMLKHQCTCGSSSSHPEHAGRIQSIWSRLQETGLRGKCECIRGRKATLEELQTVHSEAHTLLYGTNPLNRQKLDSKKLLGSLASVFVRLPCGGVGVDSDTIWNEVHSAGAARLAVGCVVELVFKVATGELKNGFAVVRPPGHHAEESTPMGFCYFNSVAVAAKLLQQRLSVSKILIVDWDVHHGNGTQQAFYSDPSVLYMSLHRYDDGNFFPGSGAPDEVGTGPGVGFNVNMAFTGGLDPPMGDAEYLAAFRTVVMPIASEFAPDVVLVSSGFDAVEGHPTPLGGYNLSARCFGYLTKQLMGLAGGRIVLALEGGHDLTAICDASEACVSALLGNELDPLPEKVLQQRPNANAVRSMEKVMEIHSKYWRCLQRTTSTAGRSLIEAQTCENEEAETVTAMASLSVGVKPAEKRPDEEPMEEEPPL
Sequence of HDAC2 (Q92769 whole entry, canonical isoform): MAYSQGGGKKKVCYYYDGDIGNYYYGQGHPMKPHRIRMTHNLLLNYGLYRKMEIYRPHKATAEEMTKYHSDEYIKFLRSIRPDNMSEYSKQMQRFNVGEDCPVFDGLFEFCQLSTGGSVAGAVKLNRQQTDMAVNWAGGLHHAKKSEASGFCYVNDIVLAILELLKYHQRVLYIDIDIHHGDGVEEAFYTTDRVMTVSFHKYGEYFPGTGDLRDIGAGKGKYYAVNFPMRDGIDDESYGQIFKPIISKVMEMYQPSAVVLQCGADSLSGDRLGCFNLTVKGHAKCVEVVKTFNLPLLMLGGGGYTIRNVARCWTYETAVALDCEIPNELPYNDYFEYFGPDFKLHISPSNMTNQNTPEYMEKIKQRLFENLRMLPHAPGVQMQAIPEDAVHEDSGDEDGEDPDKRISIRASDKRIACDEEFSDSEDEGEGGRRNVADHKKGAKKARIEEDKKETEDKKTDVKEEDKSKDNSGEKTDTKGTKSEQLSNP
Sequence of HDAC11 (Q96DB2 whole entry): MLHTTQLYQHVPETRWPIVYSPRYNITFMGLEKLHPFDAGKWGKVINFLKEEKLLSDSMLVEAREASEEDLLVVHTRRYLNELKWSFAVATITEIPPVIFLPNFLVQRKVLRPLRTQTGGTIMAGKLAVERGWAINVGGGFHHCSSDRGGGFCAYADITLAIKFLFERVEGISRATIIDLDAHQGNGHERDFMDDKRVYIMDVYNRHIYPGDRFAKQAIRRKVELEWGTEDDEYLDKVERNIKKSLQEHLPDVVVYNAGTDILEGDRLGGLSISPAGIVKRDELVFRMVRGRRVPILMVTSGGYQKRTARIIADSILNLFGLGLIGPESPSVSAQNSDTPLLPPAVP

residual percentage in HUMAN S9 FRACTION [1]: 77% | IC50 (HDAC2): > 30 µM | IC50 (HDAC8): > 200 µM | IC50 (HDAC3): > 30 µM | residual percentage in RAT PLASMA (Stability in rat plasma): 78% | residual percentage in HUMAN PLASMA [2]: 80% | IC50 (recombinant human HDAC1): > 200 µM | IC50 (HDAC7): > 30 µM | residual percentage in RAT S9 FRACTION [3]: 77% | IC50 (recombinant human HDAC6): 0.012 µM | IC50 (HDAC9): > 30 µM | IC50 (HDAC5): > 30 µM | IC50 (HDAC11): > 30 µM | IC50 (HDAC4): > 30 µM | IC50 (HDAC10): > 30 µM
SMILES: O=C1NCc2ccc(-c3nnn(Cc4ccc(-c5nnc(C(F)F)o5)cn4)n3)cc21 [compound 4, 6-(2-((5-(5-(difluoromethyl)-1,3,4-oxadiazol-2-yl)pyridin-2-yl)methyl)-2H-tetrazol-5-yl)isoindolin-1-one]
fold induction at 1 µM [4]: 13

residual percentage in HUMAN S9 FRACTION [1]: 92% | residual percentage in RAT PLASMA (Stability in rat plasma): 75% | residual percentage in HUMAN PLASMA [2]: 82% | IC50 (recombinant human HDAC1): > 200 µM | residual percentage in RAT S9 FRACTION [3]: 71% | IC50 (recombinant human HDAC6): 0.044 µM
SMILES: NC(=O)c1ccc(-c2nnn(Cc3ccc(-c4nnc(C(F)F)o4)cc3)n2)cc1 [compound 116, 4-(2-(4-(5-(difluoromethyl)-1,3,4-oxadiazol-2-yl)benzyl)-2H-tetrazol-5-yl)benzamide]
fold induction at 1 µM [4]: 5

residual percentage in HUMAN S9 FRACTION [1]: 86% | residual percentage in RAT PLASMA (Stability in rat plasma): 87% | residual percentage in HUMAN PLASMA [2]: 92% | IC50 (recombinant human HDAC1): > 200 µM | residual percentage in RAT S9 FRACTION [3]: 78% | IC50 (recombinant human HDAC6): 0.04 µM
SMILES: C[C@@H](c1ccc(-c2nnc(C(F)F)o2)cc1)n1cc(-c2cccc(NC(=O)N3CCOCC3)c2)nn1 (stereo in doubt) [compound 104, N-(3-(1-(1-(4-(5-(difluoromethyl)-1,3,4-oxadiazol-2-yl)phenyl)ethyl)-1H-1,2,3-triazol-4-yl)phenyl)morpholine-4-carboxamide]
fold induction at 1 µM [4]: 15

residual percentage in HUMAN S9 FRACTION [1]: 95% | residual percentage in RAT PLASMA (Stability in rat plasma): 83% | residual percentage in HUMAN PLASMA [2]: 83% | IC50 (recombinant human HDAC1): > 200 µM | residual percentage in RAT S9 FRACTION [3]: 97% | IC50 (recombinant human HDAC6): 0.011 µM
SMILES: O=C1Nc2ccc(-c3cn(Cc4ccc(-c5nnc(C(F)F)o5)cn4)nn3)cc2C12CCNC2 (single isomer, unassigned) [compound 274, 5-(1-((5-(5-(difluoromethyl)-1,3,4-oxadiazol-2-yl)pyridin-2-yl)methyl)-1H-1,2,3-triazol-4-yl)spiro[indoline-3,3′-pyrrolidin]-2-one]
fold induction at 1 µM [4]: 12

Continued, compound first:

SMILES: NC(=O)c1cccc(-c2nnn(Cc3ccc(-c4nnc(C(F)F)o4)c(F)c3)n2)c1 [compound 89, 3-(2-(4-(5-(difluoromethyl)-1,3,4-oxadiazol-2-yl)-3-fluorobenzyl)-2H-tetrazol-5-yl)benzamide]
residual percentage in HUMAN S9 FRACTION [1]: 96% | residual percentage in RAT PLASMA (Stability in rat plasma): 82% | residual percentage in HUMAN PLASMA [2]: 81% | IC50 (recombinant human HDAC1): > 200 µM | residual percentage in RAT S9 FRACTION [3]: 98% | IC50 (recombinant human HDAC6): 0.034 µM | fold induction at 1 µM [4]: 8

SMILES: O=C1Nc2cc(-c3cn(Cc4ccc(-c5nnc(C(F)F)o5)cn4)nn3)ccc2NC12CCNCC2 [compound 41, 6′-(1-((5-(5-(difluoromethyl)-1,3,4-oxadiazol-2-yl)pyridin-2-yl)methyl)-1H-1,2,3-triazol-4-yl)-1′,4′-dihydro-3′H-spiro[piperidine-4,2′-quinoxalin]-3′-one]
residual percentage in HUMAN S9 FRACTION [1]: 94% | residual percentage in RAT PLASMA (Stability in rat plasma): 77% | residual percentage in HUMAN PLASMA [2]: 91% | IC50 (recombinant human HDAC1): 123 µM | residual percentage in RAT S9 FRACTION [3]: 92% | IC50 (recombinant human HDAC6): 0.019 µM | fold induction at 1 µM [4]: 4

SMILES: Nc1ccc(-c2cn(C(CN3CCCC3)c3ccc(-c4nnc(C(F)F)o4)cc3)nn2)cn1 (centres unmarked) [Compd. 124, 5-(1-(1-(4-(5-(difluoromethyl)-1,3,4-oxadiazol-2-yl)phenyl)-2-(pyrrolidin-1-yl)ethyl)-1H-1,2,3-triazol-4-yl)pyridin-2-amine]
residual percentage in HUMAN S9 FRACTION [1]: 91% | residual percentage in RAT PLASMA (Stability in rat plasma): 92% | residual percentage in HUMAN PLASMA [2]: 94% | IC50 (recombinant human HDAC1): > 200 µM | residual percentage in RAT S9 FRACTION [3]: 96% | IC50 (recombinant human HDAC6): 0.047 µM | fold induction at 1 µM [4]: 13

SMILES: CNc1ccc2cc(-c3cn(Cc4ccc(-c5nnc(C(F)F)o5)cn4)nn3)ccc2n1 [compound 34, 6-(1-((5-(5-(difluoromethyl)-1,3,4-oxadiazol-2-yl)pyridin-2-yl)methyl)-1H-1,2,3-triazol-4-yl)-N-methylquinolin-2-amine]
residual percentage in HUMAN S9 FRACTION [1]: 89% | residual percentage in RAT PLASMA (Stability in rat plasma): 69% | residual percentage in HUMAN PLASMA [2]: 95% | IC50 (recombinant human HDAC1): > 200 µM | residual percentage in RAT S9 FRACTION [3]: 83% | IC50 (recombinant human HDAC6): 0.015 µM | fold induction at 1 µM [4]: 28
